From patent US11016100B2, “Methods for identifying modulators of ion channels” (X-Body, Inc., priority 2007, dated 2021)

System: parental CHO cells
Settings: parental CHO cells lacking hERG ion channels; potassium-free starvation buffer; FIG. 3
Description: This protocol employs potassium free starvation buffer to depolarize cells and thereby open ion channels such that screening ion channel modulators is possible. Colorimetric resonant reflectance biosensor plates were washed with 1×PBS for hydration baseline for 3 to 5 minutes. A PWV was determined for each of the wells. […] The plates were coated with 25.0 μl/well of fibronectin for 2 hrs at room temperature. The plates were blocked for 1 hour at room temperature or overnight at 4° C. by addition of 25.0 μl ovalbumin or BSA in PBS to the wells previously coated with fibronectin.
Starvation buffers were prepared with and without potassium. For 500.0 ml potassium-free starvation buffer the following reagents were used: 25 ml of 3M NaCl for 150 mM NaCl final; 10.0 ml for 20 mM HEPES; 1.0 ml for 2 mM calcium chloride; 0.5 ml for 2 mM magnesium chloride; 1.0 ml for 5 mM D-(+)-glucose; up to 500.0 ml with H2O HPLC. Potassium starvation buffer is prepared the same as above, but with 2 mM KCl added. […]
20.0 μl of potassium-containing starvation buffer was added to each well. […] The average number of cells/well was determined. […]
PWVs are taken for the biosensor plates for 3 to 5 minutes or until a stable read of less than 1-2 pm change/minute is attained. […]

SMILES: COc1cc(N)c(Cl)cc1C(=O)NC1CCN(CCCOc2ccc(F)cc2)CC1OC (stereo not shown) [Cisapride monohydrate]
- effect of the inhibitors on cell swelling in parental CHO cells (PWV): little to no effect
